Laboratory results as given in ChEMBL document CHEMBL1137476, “Synthesis of the A,B-ring-truncated OSW saponin analogs and their antitumor activities” (Bioorg Med Chem Lett, 2007).

Key:
HeLa = assay: Antitumor activity against HeLa cells; type: functional, cell-based; conditions: Homo sapiens
Jurkat = assay: Antitumor activity against Jurkat cells; type: functional, cell-based; conditions: Homo sapiens

Structure (SMILES)	IC50 (HeLa)	IC50 (Jurkat)
COc1ccc(C(=O)O[C@H]2[C@H](O[C@H]3[C@H](OC(C)=O)[C@@H](O[C@H]4C[C@H]5C[C@@H](O)CC[C@]5(C)[C@@]4(O)[C@@H](C)C(=O)OCC(C)C)OC[C@H]3O)OC[C@@H](O)[C@@H]2O)cc1	0.8 µM	21.1 µM
COc1ccc(C(=O)O[C@H]2[C@H](O[C@H]3[C@H](OC(C)=O)[C@@H](O[C@H]4C[C@H]5C[C@@H](O)CC[C@]5(C)[C@@]4(O)[C@H](C)C(=O)OCC(C)C)OC[C@H]3O)OC[C@@H](O)[C@@H]2O)cc1	2.6 µM	14.5 µM
COc1ccc(C(=O)O[C@H]2[C@H](O[C@H]3[C@H](OC(C)=O)[C@@H](O[C@H]4C[C@H]5CCCC[C@]5(C)[C@@]4(O)[C@H](C)C(=O)OCC(C)C)OC[C@H]3O)OC[C@@H](O)[C@@H]2O)cc1	14.9 µM	8.9 µM
COc1ccc(C(=O)O[C@H]2[C@H](O[C@H]3[C@H](OC(C)=O)[C@@H](O[C@H]4C[C@H]5[C@@H]6CC=C7C[C@@H](O)CC[C@]7(C)[C@H]6CC[C@]5(C)[C@@]4(O)[C@H](C)C(=O)OCC(C)C)OC[C@H]3O)OC[C@@H](O)[C@@H]2O)cc1	0.24 µM	0.0013 µM
